Laboratory results reported in publication PMC11466185, “Mechanisms and efficacy of small molecule latency-promoting agents to inhibit HIV reactivation ex vivo” (JCI Insight, 2024).
Where “and” joins values, the source holds several entries; their conditions need not be identical. Equal values may be shown once. Read-outs that look alike come from different tables or passages of the source.

What was measured:
PBMCs = assay: Cell viability by trypan blue staining after 24 hours; type: cell-based, human
Procedure: (§1) Figure 1 Screening of candidate LPAs by measuring the change in multiply spliced HIV transcripts after activation. Each drug was tested in PBMCs from 2 ART-suppressed study participants (denoted in the legend by varying symbol shapes). PBMCs were aliquoted into wells at 6 × 10^6 cells/well. After activation, the cells were cultured with antiretrovirals in the presence of individual drugs in DMSO or DMSO alone as control. All conditions were tested in the presence of CD3/28 T cell–activating beads, except for the unactivated DMSO condition. (A) After 24 hours, the viability was measured by trypan blue staining and then normalized to the levels of the activated DMSO (% of activated DMSO). Bars indicate medians. (B) Total cellular RNA was extracted, and the levels of multiply spliced HIV transcripts (TatRev) were measured by RT-ddPCR, normalized to 1 μg of total cellular RNA, and expressed as a percentage of the activated DMSO control (% of activated DMSO). RT-dd, reverse transcription digital droplet; vRNA, viral RNA; HAT, histone acetyltransferase.
For quantification of cell-associated HIV transcripts, PBMCs were harvested either after 24 hours or after 6 days. The cell viabilities were measured by trypan blue staining; then the cells were pelleted by centrifuging at 300g for 6 minutes and stored at –80°C. For quantification of virion-associated HIV RNA, cell culture supernatant was collected from 6 × 10^6 PBMCs that were treated and activated for 6 days as described above. Residual cells and cellular debris were subsequently removed from the supernatant by differential centrifugation (300g for 6 minutes, then 20,000g for 10 minutes), and the supernatant was stored at –80°C.

[1] = test system: HIV transcripts (TAR, LLTR, Pol, PolyA, TatRev); assay: Latency reversal assay: cell-associated HIV transcripts (RT-ddPCR) 24 hours after anti-CD3/CD28 activation of PBMCs from ART-suppressed PWH; type: cell-based; parameters: Elongated (LLTR) HIV transcripts, median relative to activated DMSO, initial screening / Midtranscribed (Pol) HIV transcripts, median relative to activated DMSO, initial screening / Multiply spliced (TatRev) HIV transcripts, median relative to activated DMSO, initial screening: concentration or dose not given beside the values; conditions: for Effect on HIV transcripts in the initial drug screen (in words) / Multiply spliced (TatRev) HIV transcripts, median relative to activated DMSO, initial screening / Completed (PolyA) HIV transcripts, median relative to activated DMSO, initial screening: initial screening, 2 participants; for Effect on HIV transcripts in the initial drug screen (in words): 24 hours after activation; for Multiply spliced (TatRev) HIV transcripts, median relative to activated DMSO, initial screening / Completed (PolyA) HIV transcripts, median relative to activated DMSO, initial screening / Multiply spliced HIV transcripts (TatRev) (Fig 1B): 24 hours; for Multiply spliced (TatRev) HIV transcripts, median relative to activated DMSO, initial screening: Figure 1B; for Multiply spliced (TatRev) HIV transcripts, median relative to activated DMSO, initial screening / Completed (PolyA) HIV transcripts, median relative to activated DMSO, initial screening: Supplemental Figure 2; for mrna remaining at 0.1 µM: 100nM
Procedure: We selected 26 small molecules targeting pathways implicated in HIV transcription or the blocks to HIV transcription underlying latency (Supplemental Table 1). […] Initial screening of all drugs was performed in freshly isolated PBMCs from 2 ART-suppressed individuals (Figure 1 and Supplemental Figure 2). PBMCs were cultured in the presence of individual drugs in DMSO or DMSO alone as a control, subsequently activated (anti-CD3/CD28), and harvested after 24 hours. […] The progression through different blocks to HIV transcription was quantified by measuring the levels of initiated (TAR), 5′ elongated (LLTR), midtranscribed/unspliced (Pol), completed (PolyA), and multiply spliced (TatRev) HIV transcripts. The levels of those HIV transcripts were normalized to 1 μg of total cellular RNA (to normalize for the effect of the drug on global cellular transcription) and expressed as a percentage of the activated DMSO control.
as §1
The ability of our candidate LPAs to inhibit HIV transcriptional progression after activation was examined in PBMCs from a minimum of 7 PWH per drug tested (Figure 3). PBMCs were cultured in the presence of individual drugs in DMSO or in DMSO alone as a control, subsequently activated (anti-CD3/CD28), and harvested after 24 hours.
Each drug was tested in PBMCs from 7 ART-suppressed study participants. The PBMCs were aliquoted into wells at 6 × 10^6 cells/well. After activation, the cells were cultured with antiretrovirals in the presence of individual drugs in DMSO or DMSO alone as control. All conditions were tested in the presence of CD3/28 T cell–activating beads, except for the unactivated DMSO condition. After 24 hours, total RNA was extracted, and the progression through different stages of HIV transcription was quantified by measuring the levels of initiated (TAR), 5′ elongated (LLTR), midtranscribed/unspliced (Pol), completed (PolyA), and multiply spliced (TatRev) HIV transcripts. (A) The levels of all HIV transcripts were normalized to 1 μg of total cellular RNA and expressed as a percentage of the activated DMSO control (% of activated DMSO). Medians are shown as well as the individual values per study participant in different colors. (B–D) The effect of each drug on HIV transcriptional progression after activation was analyzed by the ratio of one HIV transcript to another. Ratios are independent of HIV infection frequency or normalization to cell numbers. Shown are the proportion of (B) all HIV transcripts that were elongated (LLTR/TAR), (C) elongated HIV transcripts that were completed spliced (PolyA/LLTR), and (D) completed transcripts that were multiply spliced (TatRev/PolyA).

[2] = 10μM, 24 h after αCD3/28 activation, each column one participant

Structure (SMILES) | Viability (Fig 1A) (PBMCs; study participant 150a) | Viability (Fig 1A) (PBMCs; study participant 152) | Effect on HIV transcripts in the initial drug screen (in words) [1] | other results
Nc1nc2nn[nH]c2c(=O)[nH]1 [8-azaguanine] | 106.88 % of activated DMSO | 98.65 % of activated DMSO | did not observe decreases | Multiply spliced (TatRev) HIV transcripts, median relative to activated DMSO, initial screening [1]: increase in multiply spliced transcripts
C[C@H]1O[C@@H](O[C@H]2[C@@H](O)C[C@H](O[C@H]3[C@@H](O)C[C@H](O[C@H]4CC[C@@]5(C)[C@H](CC[C@@H]6[C@@H]5C[C@@H](O)[C@]5(C)[C@@H](C7=CC(=O)OC7)CC[C@]65O)C4)O[C@@H]3C)O[C@@H]2C)C[C@H](O)[C@@H]1O [digoxin] | 98.44 % of activated DMSO | 105.27 % of activated DMSO | did not observe decreases | mrna remaining at 0.0025 µM ([1]; Human immunodeficiency virus 1, PBMC, 24 h, 2.5nM, 24 h after αCD3/28 activation, each column one participant, read-out: PolyA HIV transcripts (DMSO+αCD3/28 = 100)): 87%
CC(=O)S[C@@H]1CC2=CC(=O)CC[C@]2(C)[C@H]2CC[C@@]3(C)[C@@H](CC[C@@]34CCC(=O)O4)[C@H]12 [spironolactone] | 102.53 % of activated DMSO | 102.65 % of activated DMSO | little reduction | –
COc1cc(F)ccc1-c1ncnc(Nc2cccc(C[S@](C)(=N)=O)c2)n1 [atuveciclib] | 108.3 % of activated DMSO | 95.7 % of activated DMSO | – | Multiply spliced (TatRev) HIV transcripts, median relative to activated DMSO, initial screening [1]: 46%
Nc1ccc(O)c(C(=O)O)c1 [mesalamine] | 102.78 % of activated DMSO | 98.77 % of activated DMSO | did not observe any reduction | –
Oc1ccc(/C=C/c2cc(O)cc(O)c2)cc1 [resveratrol] | 102.48 % of activated DMSO | 91.76 % of activated DMSO | – | –
Cn1cc(C2=C(c3cn(C4CCN(Cc5ccccn5)CC4)c4ccccc34)C(=O)NC2=O)c2ccccc21 [enzastaurin] | 100.98 % of activated DMSO | 98.98 % of activated DMSO | – | –
CN[C@@H]1C[C@H]2O[C@@](C)([C@@H]1OC)n1c3ccccc3c3c4c(c5c6ccccc6n2c5c31)C(=O)NC4 [staurosporine] | 109.29 % of activated DMSO | 100.37 % of activated DMSO | – | Completed (PolyA) HIV transcripts, median relative to activated DMSO, initial screening [1]: 41%
CN1CCN(c2nc(C3=C(c4c[nH]c5ccccc45)C(=O)NC3=O)c3ccccc3n2)CC1 [sotrastaurin] | 103.88 % of activated DMSO | 98.33 % of activated DMSO | – | mrna remaining at 0.1 µM ([1]; Human immunodeficiency virus 1, PBMC, 24 h, 24 h after αCD3/28 activation, each column one participant, read-out: LLTR HIV transcripts (DMSO+αCD3/28 = 100)): 99.4%; mrna remaining at 0.1 µM ([1]; Human immunodeficiency virus 1, PBMC, 24 h, 24 h after αCD3/28 activation, each column one participant, read-out: Pol HIV transcripts (DMSO+αCD3/28 = 100)): 51.5%; mrna remaining at 0.1 µM ([1]; Human immunodeficiency virus 1, PBMC, 24 h, 24 h after αCD3/28 activation, each column one participant, read-out: PolyA HIV transcripts (DMSO+αCD3/28 = 100)): 39.3%; Completed (PolyA) HIV transcripts, median relative to activated DMSO, initial screening [1]: 41%
Nc1ncnc2c1ncn2[C@@H]1O[C@H](CO)C[C@H]1O [cordycepin] | 101.9 % of activated DMSO | 92.02 % of activated DMSO | did not observe any reduction | –
CC(=O)Oc1ccccc1C(=O)O [aspirin] | 99.56 % of activated DMSO | 95.5 % of activated DMSO | did not observe much reduction | –
CCCCCCCCCCCCCCC=C(C(=O)OCC)C(=O)OCC [SPV-106] | 103.1 % of activated DMSO | 97.61 % of activated DMSO | did not observe any reduction | LLTR HIV transcripts (DMSO+αCD3/28 = 100) [1, 2]: 123.81 and 93.28; Pol HIV transcripts (DMSO+αCD3/28 = 100) [1, 2]: 71.05 and 12.29; PolyA HIV transcripts (DMSO+αCD3/28 = 100) [1, 2]: 64.82 and 38.96; TatRev HIV transcripts (DMSO+αCD3/28 = 100) [1, 2]: 60.34 and 263.16; Multiply spliced HIV transcripts (TatRev) (Fig 1B) ([1]; study participant 150a): 60.34 % of activated DMSO; Multiply spliced HIV transcripts (TatRev) (Fig 1B) ([1]; study participant 152): 263.16 % of activated DMSO
